Consider three substances from article PMC5602538, “Assessment of the Drug Interaction Potential of Unconjugated and GalNAc3-Conjugated 2′-MOE-ASOs” (Molecular Therapy. Nucleic Acids, 2017).

{GalNAc3} = trishexylamino-C6 triantennary GalNAc conjugate; e = 2'-O-(2-methoxyethyl) (MOE); d = 2'-deoxy (DNA) A value given as a limit tells only on which side of the number the result lay.

The target of one data set is T1, CYP2C8 (Homo sapiens, UniProt P10632).
T1 sequence (P10632 1-490): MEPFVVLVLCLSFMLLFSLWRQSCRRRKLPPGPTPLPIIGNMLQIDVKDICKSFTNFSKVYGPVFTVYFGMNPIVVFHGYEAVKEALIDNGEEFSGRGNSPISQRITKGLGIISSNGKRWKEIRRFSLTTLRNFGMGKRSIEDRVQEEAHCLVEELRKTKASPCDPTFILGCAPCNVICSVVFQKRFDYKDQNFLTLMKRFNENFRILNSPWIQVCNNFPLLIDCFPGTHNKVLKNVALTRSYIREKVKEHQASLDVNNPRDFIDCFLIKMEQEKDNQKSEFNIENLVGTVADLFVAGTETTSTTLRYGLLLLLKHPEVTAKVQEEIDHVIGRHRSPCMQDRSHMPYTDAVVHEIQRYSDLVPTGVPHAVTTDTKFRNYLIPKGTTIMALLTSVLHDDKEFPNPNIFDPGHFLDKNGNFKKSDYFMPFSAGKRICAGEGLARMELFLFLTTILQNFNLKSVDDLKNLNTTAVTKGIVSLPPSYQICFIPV
Conditions: hepatocytes.

Another data set addresses CYP2C9 (Homo sapiens, UniProt P11712). The settings on record: hepatocytes.
A further data set concerns the target CYP3A4 (Homo sapiens, UniProt P08684). The settings on record: hepatocytes.
The next data set concerns the target T2, CYP2B6 (Homo sapiens, UniProt P20813).
T2 sequence (P20813 1-491): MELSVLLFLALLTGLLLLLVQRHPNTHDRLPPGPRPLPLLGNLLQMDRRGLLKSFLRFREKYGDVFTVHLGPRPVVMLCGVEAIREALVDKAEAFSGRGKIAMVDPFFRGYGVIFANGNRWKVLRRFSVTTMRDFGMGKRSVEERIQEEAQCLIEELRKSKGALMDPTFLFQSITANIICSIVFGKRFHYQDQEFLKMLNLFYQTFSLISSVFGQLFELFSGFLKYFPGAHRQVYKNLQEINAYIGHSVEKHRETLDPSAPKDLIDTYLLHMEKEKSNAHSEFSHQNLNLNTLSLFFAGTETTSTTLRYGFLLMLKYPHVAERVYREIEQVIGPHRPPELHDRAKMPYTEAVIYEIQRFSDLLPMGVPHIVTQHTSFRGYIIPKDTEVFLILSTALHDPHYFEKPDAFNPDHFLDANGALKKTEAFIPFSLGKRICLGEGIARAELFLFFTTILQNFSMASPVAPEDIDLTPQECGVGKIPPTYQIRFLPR
Conditions: hepatocytes.

Another data set addresses T3, CYP1A2 (Homo sapiens, UniProt P05177).
T3 construct: Human hepatocytes (pooled from 5 donors); host or cells: cryopreserved human hepatocytes in suspension, pooled from 5 donors
Nature of the data set: CYP1A2 inhibition in cryopreserved human hepatocyte suspensions (phenacetin probe). In kind it is in vitro ADME. Conditions: human hepatocytes.

For another data set, the target named is CYP2C19 (Homo sapiens, UniProt P33261). The settings on record: hepatocytes.
The test system of a further data set is CYP1A2 mRNA. The experiment in a line: CYP1A2 mRNA induction in plated human hepatocytes. Conditions: ASO 100 μM, human hepatocytes 72 hr, vs PBS 1% vehicle, mean ± SD of triplicate. As to the method: Upon receipt, sandwich-cultured cryopreserved human hepatocytes (with Matrigel) plated on collagen-coated 24-well plates were inspected under a microscope for general morphology and viability. Fresh culture medium (OptiCulture Hepatocyte Media) was added to each plate that passed the visual inspection. The plates were then placed in an incubator set to 37°C with 5% carbon dioxide (CO2) for overnight acclimation. […] During this time, cells in parallel wells were also treated with 50.0 μM omeprazole (inducer of CYP1A2), 1,000 μM phenobarbital (inducer of CYP2B6), or 10.0 μM rifampicin (inducer of CYP3A4) in triplicate, respectively.
After collection of the supernatant for catalytic analysis, the remaining cells were washed and lysed with QIAGEN Buffer RLT from the QIAGEN RNeasy Kit. […]
The activity of each CYP enzyme was measured by comparing the peak area ratio of the corresponding product to the peak area ratio of the internal standard. The fold induction was calculated by dividing the peak area ratio of each individual well from the treatment group by the mean of the peak area ratios obtained from the vehicle control wells. […] The ΔCƬ was calculated as follows: ΔCƬ = CƬ (CYP) − CƬ (GAPDH). […] The ΔΔCƬ was calculated as follows: ΔΔCƬ = Δ CƬ (Treatment) − Δ CƬ (Vehicle). The fold induction of the target CYP was calculated using the following equation: Fold=2^-ΔΔCT.

Chain of CYP3A4 (P08684 whole entry): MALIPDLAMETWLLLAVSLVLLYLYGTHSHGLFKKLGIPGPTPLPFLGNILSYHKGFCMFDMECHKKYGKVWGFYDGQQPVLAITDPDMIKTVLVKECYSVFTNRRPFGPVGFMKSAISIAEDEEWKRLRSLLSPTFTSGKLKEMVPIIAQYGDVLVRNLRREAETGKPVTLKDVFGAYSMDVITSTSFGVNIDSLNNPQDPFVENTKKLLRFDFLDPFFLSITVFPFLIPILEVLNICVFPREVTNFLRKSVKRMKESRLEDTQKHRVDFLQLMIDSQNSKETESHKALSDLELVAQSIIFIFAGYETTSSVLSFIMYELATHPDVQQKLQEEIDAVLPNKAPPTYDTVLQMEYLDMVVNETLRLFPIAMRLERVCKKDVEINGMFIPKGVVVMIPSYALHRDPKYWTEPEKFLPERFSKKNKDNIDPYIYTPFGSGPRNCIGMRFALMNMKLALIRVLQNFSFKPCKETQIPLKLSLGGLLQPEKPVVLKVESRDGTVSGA
T3 sequence (P05177 whole entry): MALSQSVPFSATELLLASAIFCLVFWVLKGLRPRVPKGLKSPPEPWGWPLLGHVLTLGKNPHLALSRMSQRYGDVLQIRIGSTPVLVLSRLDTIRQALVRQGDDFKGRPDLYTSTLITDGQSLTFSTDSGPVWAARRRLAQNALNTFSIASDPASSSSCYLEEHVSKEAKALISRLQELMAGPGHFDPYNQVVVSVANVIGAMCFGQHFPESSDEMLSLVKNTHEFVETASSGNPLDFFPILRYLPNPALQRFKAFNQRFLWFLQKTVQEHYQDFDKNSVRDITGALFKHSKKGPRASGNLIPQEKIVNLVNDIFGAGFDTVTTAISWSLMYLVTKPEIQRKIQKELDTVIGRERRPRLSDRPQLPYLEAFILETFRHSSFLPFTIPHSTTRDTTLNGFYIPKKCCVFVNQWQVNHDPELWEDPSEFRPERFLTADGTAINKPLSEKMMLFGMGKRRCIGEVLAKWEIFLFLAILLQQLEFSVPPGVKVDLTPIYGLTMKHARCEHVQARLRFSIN
Chain of CYP2C9 (P11712 whole entry): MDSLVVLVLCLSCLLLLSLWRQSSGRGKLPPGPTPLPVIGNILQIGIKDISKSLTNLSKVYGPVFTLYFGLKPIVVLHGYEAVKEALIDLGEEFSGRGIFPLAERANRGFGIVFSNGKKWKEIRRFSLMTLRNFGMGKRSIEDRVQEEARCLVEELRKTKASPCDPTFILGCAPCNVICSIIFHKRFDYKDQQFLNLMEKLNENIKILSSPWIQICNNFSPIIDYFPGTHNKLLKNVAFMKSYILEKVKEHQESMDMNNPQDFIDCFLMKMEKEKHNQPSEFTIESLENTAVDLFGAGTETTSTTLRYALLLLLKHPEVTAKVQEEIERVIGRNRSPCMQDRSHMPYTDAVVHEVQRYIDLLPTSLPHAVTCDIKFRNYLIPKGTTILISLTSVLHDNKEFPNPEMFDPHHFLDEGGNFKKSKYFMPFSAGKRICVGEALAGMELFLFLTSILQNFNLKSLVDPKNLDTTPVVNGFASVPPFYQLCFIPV
Chain of CYP2C19 (P33261 whole entry): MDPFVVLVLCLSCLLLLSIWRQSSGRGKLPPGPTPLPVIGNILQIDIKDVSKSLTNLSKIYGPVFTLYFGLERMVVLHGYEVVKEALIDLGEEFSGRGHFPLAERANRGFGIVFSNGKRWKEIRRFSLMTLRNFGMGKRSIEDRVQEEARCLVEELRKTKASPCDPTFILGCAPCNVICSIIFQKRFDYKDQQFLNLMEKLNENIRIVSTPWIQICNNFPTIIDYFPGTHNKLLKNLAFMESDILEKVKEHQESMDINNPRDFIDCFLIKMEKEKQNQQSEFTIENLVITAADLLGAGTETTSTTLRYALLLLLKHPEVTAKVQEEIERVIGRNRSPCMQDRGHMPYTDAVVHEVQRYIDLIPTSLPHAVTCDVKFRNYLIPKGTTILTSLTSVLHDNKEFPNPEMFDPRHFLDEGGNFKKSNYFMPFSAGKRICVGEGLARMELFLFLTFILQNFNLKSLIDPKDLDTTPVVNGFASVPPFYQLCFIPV
Protocol for CYP2B6: (§1) Preincubations were performed in 50 μL of Williams’ Medium E with 2 mM salicylamide. The salicylamide was included to reduce possible phase II conjugation to the precursor phase I metabolites. […] Human hepatocytes (pooled from 5 donors) were thawed and prepared according to the vendor’s protocol. […] Incubations were carried out at 37°C with 5% CO2. The incubation time was 45 min for phenacetin, diclofenac, dextromethorphan, midazolam, bupropion, chlorzoxazone, and testosterone and 90 min for paclitaxel and (S)-mephenytoin. The reactions were stopped by adding 200 μL of ice-cold acetonitrile (can) with tolbutamide (100 ng/mL) as the internal standard to 100 μL of hepatocyte suspension (1:2, v/v). The 96-well plate was then vortexed at 1,700 rpm for 3 min and centrifuged at 3,500 rpm for 10 min at 20°C. The supernatants were analyzed using liquid chromatography-tandem MS (LC-MS/MS).
Protocol for CYP2C19: as §1
Protocol for CYP2C8: as §1
Protocol for CYP2C9: as §1
Protocol for CYP3A4: as §1

Turning to “ISIS 304801: 20-mer (5-10-5) 2′-MOE gapmer PS backbone antisense inhibitor of apoC-III, sequence AGCTTCTTGTCCAGCTTTAT (sugars from the 5' end e5 d10 e5, all phosphorothioate, methylation of C not given here)”, the half-maximal inhibitory concentration (IC50) with CYP2C8, in the data set with CYP2C9, with CYP3A4, with CYP2B6, in the data set with CYP1A2 and with CYP2C19 was more than 100 µM in each case.

As to “ISIS 420915: 20-mer 2′-MOE gapmer PS backbone antisense inhibitor of transthyretin, sequence TCTTGGTTACATGAAATCCC (all phosphorothioate, sugars by position and methylation of C not given here; 2'-MOE gapmer)”, the IC50 with CYP2C8, with CYP2C9, in the data set with CYP3A4, in the data set with CYP2B6, with CYP1A2 and with CYP2C19 was more than 100 µM throughout.

With “ISIS 681257: 20-mer 2′-MOE gapmer PS/PO mixed backbone ASO conjugated to 5′-trishexylamino GalNAc3, targets Lp(a), sequence TGCTCCGTTGGTGCTTGTTC (5' {GalNAc3}, sugars by position and backbone not given here; 2'-MOE gapmer with mixed PS/PO backbone)”, the “Fold induction of CYP1A2 mRNA” value with CYP1A2 mRNA was determined as 1.71 ± 0.0853 fold.

Broadly, the IC50 is the concentration at which inhibition is half-maximal.
